Data as given in patent US12617777B2, “GPR84 antagonists and uses thereof” (Liminal BioSciences Limited, priority 2021, dated 2026).

Molecular target: T1, human GPR84 receptor (Homo sapiens, UniProt Q9NQS5)
T1 construct: host or cells: HEK293, transient transfection
Assay: Gαi biosensor BRET assay in HEK293 cells (antagonism of ZQ-16)
Type: cell-based
Details: for inhibition at 25 µM: HEK293, single concentration 25 μM (designated I); for inhibition at 2 µM: HEK293, single concentration 2 μM (designated A); for inhibition at 10 µM: HEK293, single concentration 10 μM (designated F); for IC50: HEK293 cells, antagonism of 200 nmol/L ZQ-16
In short: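 HEK293 cells transiently expressing human GPR84, Gαi2-Rluc8, GFP10-Gγ2 and Gβ1, in Tyrode's buffer pH 7.5. Compounds preincubated 5 min at 37° C, then 200 nmol/L ZQ-16 for 5 min at room temperature; coelenterazine 400A 5 μmol/L. BRET2 acceptor/donor ratio, background- and vehicle-corrected net BRET.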

T1 sequence (Q9NQS5 whole entry): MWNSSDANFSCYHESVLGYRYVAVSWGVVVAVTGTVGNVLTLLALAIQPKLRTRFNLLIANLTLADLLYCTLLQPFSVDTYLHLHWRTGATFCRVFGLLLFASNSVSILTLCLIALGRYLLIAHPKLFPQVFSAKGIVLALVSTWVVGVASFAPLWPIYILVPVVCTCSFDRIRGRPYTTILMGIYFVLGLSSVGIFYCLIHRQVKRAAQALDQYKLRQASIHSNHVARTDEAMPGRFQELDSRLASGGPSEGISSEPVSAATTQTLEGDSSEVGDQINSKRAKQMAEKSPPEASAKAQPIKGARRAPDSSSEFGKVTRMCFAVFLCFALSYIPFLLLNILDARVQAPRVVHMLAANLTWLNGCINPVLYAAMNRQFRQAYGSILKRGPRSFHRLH

Structure (SMILES)	inhibition at 10 µM [%]	also measured
Cc1cc(C#CC2CC2)ccc1-n1cc(CN2CCOCC2)nn1 [Compound I-297]		inhibition at 25 µM: ≤ 25%
Cc1cc(C#CC2CC2)ccc1-c1cn(CC23CC4CC(CC(C4)O2)C3)nn1 [Compound I-523]		inhibition at 2 µM: ≤ 25%
Cc1cc(N2CCN(Cc3ccncc3)CC2)ccc1-c1cn(CC2CCCCO2)nn1 (centres unmarked) [Compound I-549]	50 to 75	IC50: 1000 to 3000 nM
Cc1cc(C#CC2CC2)ccc1-c1cn(CC2CCCO2)nn1 (centres unmarked) [Compound I-60]		IC50: > 3000 nM
Cc1cc(C#CC2CC2)ccc1-c1cn(CC2CCCCO2)nc1C (centres unmarked) [Compound I-326]	≤ 25	
COCC(=O)N1CCCCC1Cn1cc(-c2ccc(C#CC3CC3)cc2C)nn1 (centres unmarked) [Compound I-192]	≤ 25	
CC(C)Oc1cc(N2CC(C)(C)C2)cnc1-c1cn(CC2CCCCO2)nn1 (centres unmarked) [Compound I-630]	> 75	
COCC#Cc1cnc(-c2cn(CC3OCC(C)(C)CO3)nn2)c(OC(C)C)c1 [Compound I-837]	≤ 25	
Cc1cc(C(=O)n2ccc(N)n2)ccc1-c1cn(CC2CCCCO2)nn1 (centres unmarked) [Compound I-438]	25 to 50	
Cc1cc(N2CC3(CCN(Cc4ccccn4)CC3)C2)ccc1-c1cn(CC2CCCCO2)nn1 (centres unmarked) [Compound I-311]	50 to 75	
Cc1cc(N2CCCC23CN(C)C3)ccc1-c1cn(CC2CCCCO2)nn1 (centres unmarked) [Compound I-151]	≤ 25	
Cc1cc(C#CC2CC2)ccc1-c1cn(CC2CC3(CC3)CO2)nn1 (centres unmarked) [Compound I-569]	> 75	IC50: 1000 to 3000 nM
COC(Cc1cc(C#CC2CC2)ccc1C)c1cn(CC2OCC(C)(C)CO2)nn1 (centres unmarked) [Compound I-753]	> 75	
CCc1cc(C#CCOC2CC2)ccc1-c1cn(CC2OCC(C)(C)CO2)nn1 [Compound I-780]	> 75	IC50: 300 to 1000 nM
CN(C)c1cc(N2CC3(COC3)C2)ccc1-c1cn(CC2OCC(C)(C)CO2)nn1 [Compound I-756]	> 75	IC50: 300 to 1000 nM
Cc1cc(C#CCn2cc(C3CC3)nn2)ccc1-c1cn(CC2CCCCO2)nn1 (centres unmarked) [Compound I-645]	> 75	
Cc1cccc(-c2cn(CC#Cc3ccc(-c4cn(CC5CCCCO5)nn4)c(C)c3)nn2)c1 (centres unmarked) [Compound I-492]	> 75	IC50: ≤ 300 nM
CN(C)c1cc(C#N)ccc1-c1cn(CC2OCC(C)(C)CO2)nn1 [Compound I-733, 4-(1-((5,5-dimethyl-1,3-dioxan-2-yl)methyl)-1H-1,2,3-triazol-4-yl)-3-(dimethylamino)benzonitrile]	50 to 75	
COCC1(C)CN(c2ccc(-c3cn(CC4OCC(C)(C)CO4)nn3)c(N(C)C)c2)C1 [Compound I-706]	> 75	IC50: 300 to 1000 nM
Cc1cc2ccc(N3CC(C)(C)C3)cc2nc1-c1cn(CC2CCCCO2)nn1 (centres unmarked) [Compound I-622]		inhibition at 2 µM: ≤ 25%
Cc1cc(CN2CCOCC2)ccc1-c1cn(CC2CCCCO2)nn1 (centres unmarked) [Compound I-74]		inhibition at 25 µM: 25 to 50%
COCCn1cc(-c2ccc(C#CC3CC3)cc2C)nn1 [Compound I-104]	≤ 25	
Cc1cc(N2CC(C)(O)C2)ccc1-c1cn(CC2CCCCO2)nn1 (centres unmarked) [Compound I-524]	≤ 25	
CC1(C)CN(c2ccc(-c3cn(CC4CCCCO4)nn3)c(C(F)(F)F)c2)C1 (centres unmarked) [Compound I-255]	25 to 50	
Cc1cc(N2CC(C)(C)C2)c(C)cc1-c1cn(CC2OCC(C)(C)CO2)nn1 [Compound I-685]	> 75	IC50: 1000 to 3000 nM

Structure (SMILES)	inhibition at 10 µM [%]	also measured
COc1ccc(Cl)c(N(C)c2cn(CC3OCC(C)(C)CO3)nn2)c1 [Compound I-813]	> 75	
CC(=O)NCC#Cc1ccc(-c2cn(C[C@H]3CCCCO3)nn2)c(C)c1 [Compound I-193]	25 to 50	
FC(F)(F)Cc1cc(C#CC2CC2)cnc1-c1cn(C[C@H]2CCCCO2)nn1 [Compound I-822]		inhibition at 2 µM: > 75%; IC50: ≤ 300 nM
c1ccc(COc2ccc(-c3cn(CC4CCCCO4)nn3)cc2)cc1 (centres unmarked) [Compound I-53]		inhibition at 25 µM: ≤ 25%
Cc1cc(C#CC2CC2)cnc1-c1cn(CC2CC(C)(C)O2)nn1 (centres unmarked) [Compound I-420]	50 to 75	
CC1(CO)CN(c2ccc(-c3cn(CC4OCC5(CCC5)O4)nn3)c(OC3CC3)c2)C1 (centres unmarked) [Compound I-810]	> 75	IC50: 300 to 1000 nM
Cc1cc(C#CC2CC2)ccc1-c1cn(CC2OCCO2)nn1 [Compound I-457]	≤ 25	
CC(=O)N1CCOC(Cn2cc(-c3ccc(C#CC4CC4)cc3C)nn2)C1 (centres unmarked) [Compound I-96]	≤ 25	
CC(C)Oc1cc(N2CC(C)(CO)C2)cnc1-c1cn(CC2OCC3(CCC3)O2)nn1 (centres unmarked) [Compound I-809]		inhibition at 2 µM: > 75%
Cc1cc(C#CCN2CCCC2C(=O)O)ccc1-c1cn(CC2CCCCO2)nn1 (centres unmarked) [Compound I-247]	≤ 25	
Cc1cc(C#CC2CC2)ccc1-n1cc(CN2CCCCC2)nn1 [Compound I-296]		inhibition at 25 µM: ≤ 25%
Cc1cc(Cn2cc(-c3ccc(C#CC4CC4)cc3C)nn2)on1 [Compound I-557]		inhibition at 2 µM: ≤ 25%
Cc1ccc(-c2ccc(C3COC(=O)N3CC3CCCCO3)c(C)c2)cn1 (centres unmarked) [Compound I-407, 4-(2-methyl-4-(6-methylpyridin-3-yl)phenyl)-3-((tetrahydro-2H-pyran-2-yl)methyl)oxazolidin-2-one]	≤ 25	
O=c1oc(CC2CCCCO2)nn1-c1ccc(C#CC2CC2)cc1 (centres unmarked) [Compound I-11]		inhibition at 25 µM: 25 to 50%
Cc1cc(N2CCCCC2)ccc1-c1cn(CC2CCCCO2)nn1 (centres unmarked) [Compound I-256]	≤ 25	
C(#CC1CC1)c1csc(-c2cn(CC3CCCCO3)nn2)c1 (centres unmarked) [Compound I-242]	≤ 25	
Cc1ccc(-c2ccc(-c3cn(CC4CCCCO4)nn3)cc2)cn1 (centres unmarked) [Compound I-39]		inhibition at 25 µM: > 75%; IC50: > 3000 nM
Cc1cc(C#CC2CC2)ccc1-c1cn(CC23CC(CO2)C3)nn1 [Compound I-525]	≤ 25	
Cc1cc(C#CCn2cc(-c3ccccc3)nn2)ccc1-c1cn(CC2CCCCO2)nn1 (centres unmarked) [Compound I-432, 1-(3-(3-methyl-4-(1-((tetrahydro-2H-pyran-2-yl)methyl)-1H-1,2,3-triazol-4-yl)phenyl)prop-2-ynyl)-4-phenyl-1H-1,2,3-triazole]	> 75	IC50: 300 to 1000 nM
Cc1cc(N2CC(C)C2)ccc1-c1cn(CC2CCCCO2)nn1 (centres unmarked) [Compound I-264]	50 to 75	
Cc1cc(C#CC2CC2)ccc1-c1cn(CC2CC(F)(F)CO2)nn1 (centres unmarked) [Compound I-489]		inhibition at 2 µM: ≤ 25%
Cc1cc(N2CC(C)(F)C2)ccc1-c1cn(CC2CCCCO2)nn1 (centres unmarked) [Compound I-519]	25 to 50	
CC1(C)COC(Cn2cc(-c3ncc(C#CCO)cc3OC3CC3)nn2)OC1 [Compound I-771]		IC50: ≤ 300 nM
Cc1cc(C#CCNC(=O)C(F)(F)F)cnc1-c1cn(CC2CCCCO2)nn1 (centres unmarked) [Compound I-843, 2,2,2-trifluoro-N-(3-(5-methyl-6-(1-((tetrahydro-2H-pyran-2-yl)methyl)-1H-1,2,3-triazol-4-yl)pyridin-3-yl)prop-2-yn-1-yl)acetamide]	> 75	
COC(c1cn(CC2Oc3ccccc3O2)nn1)c1cc(C#CC2CC2)ccc1C (centres unmarked) [Compound I-605]	> 75	IC50: 300 to 1000 nM
